Laboratory results reported in patent publication US8785383B2, “Mast cell stabilizers in the treatment of obesity” (The Brigham and Women's Hospital, Inc., priority 2007, dated 2014).
Entries after “also recorded” stand apart in the source; their conditions may differ.

Tests used:
[1] = tested on: Western diet-fed wild-type (C57BL/6) mice; test: Diet-induced obesity, Western diet with daily i.p. DSCG; assay type: in vivo, mouse
Excerpt: (§1) Wild-type (C57BL/6), Il6^−/− (C57BL/6, N11), and Ifng^−/− (C57BL/6, N10) mice were purchased from the Jackson Laboratories (Bar Harbor, Me.). Congenic Tnf^−/− (C56BL/6, N10) and mast cell-deficient Kit^W-sh/W-sh (C57BL/6, N>10) mice were generated by back-crossing to the C57BL/6 background as described (Sun, et al. Nat. Med. 13:719-724 (2007); Wolters, et al., Clin Exp Allergy 35:82-88 (2005)). The standing committee of Harvard Medical School approved all animal research protocols, and all mice were housed in a pathogen-free facility. To induce obesity, we fed 6-week-old mice (females and males) a Western diet (Research Diet, New Brunswick, N.J.) for 12-20 weeks. Mouse body weight was monitored weekly. By the end of each course of Western diet consumption, we performed glucose tolerance and energy expenditure assays as reported previously (Yang, et al., Nat. Cell Biol. 9:970-977 (2007)). Mouse blood samples were collected for serum adipokine measurement. Subcutaneous, visceral, and brown fat and skeletal muscle were harvested individually for protein extraction and paraffin section preparation. Tissue protein extracts were used for ELISA, immunoblot analysis, and cysteinyl cathepsin active site labeling. […]

[2] = tested on: Western diet-fed wild-type (C57BL/6) mice; test: Glucose tolerance assay in Western diet-fed mice; assay type: in vivo, mouse; conditions: WT mice treated with DSCG
Excerpt: as §1

[3] = tested on: Western diet-fed wild-type (C57BL/6) mice; test: Energy expenditure assay; assay type: in vivo, mouse; conditions: DSCG-treated WT mice vs untreated WT mice
Excerpt: as §1

[4] = tested on: IL6, TNF-α, IFN-γ, MCP-1, adiponectin, MMP-9, CatS, CatL, leptin in serum and/or WAT; test: ELISA of serum and WAT adipokines; assay type: in vivo, mouse
Excerpt: Mouse body weight was monitored weekly. […] Mouse blood samples were collected for serum adipokine measurement.
Frozen mouse WAT was pulverized and lysed in a RIPA buffer (Pierce, Rockford, Ill.) containing a protease inhibitor cocktail (Calbiochem, San Diego, Calif.). Both WAT and serum samples were subjected to ELISA analysis for IL6 (BD Biosciences), TNF-α (PeproTech, Rocky Hill, N.J.), IFN-γ (PeproTech), MCP-1 (PeproTech), adiponectin (R&D Systems), MMP-9 (R&D Systems), CatS (R&D Systems), and CatL (Bender MedSystems Inc, Burlingame, Calif.) according to manufacturers' instructions.

[5] = tested on: CD117-positive mast cells and CD31-positive areas in WAT and muscle; test: Immunohistology of WAT and muscle (CD117 mast cells, CD31 microvessels); assay type: in vivo, mouse; conditions: DSCG-treated vs untreated mice, same dietary conditions
Method: Human and mouse WAT and muscle tissues were fixed with 10% formalin overnight and embedded in paraffin, from which 5 μm sections were prepared. Anti-human mast cell tryptase (mouse monoclonal, 1:100, Dako, TRAPPES CEDEX, France), anti-mouse mast cell CD117 (rat monoclonal, 1:10, eBiosciences, Inc., San Diego, Calif.), and anti-mouse CD31 (rat monoclonal, 1:400, Pharmingen, San Diego, Calif.) immunostained for mast cells and microvessels on WAT, muscle, and liver sections. Researchers blinded to the origin of tissue counted human tryptase-positive and CD117-positive mast cells, and data are presented as cell numbers per mm^2. CD31-positive areas in WAT and muscle were determined using Image-Pro Plus software as described, and data were presented as percentage of CD31-positive areas (Wang, et al., J. Biol. Chem. 281:6020-6029 (2006); Wild, Microvasc Res. 59:368-376 (2000)). Hematoxylin and eosin staining assisted histologic assessment of the GI tract.

[6] = tested on: UCP1, fibronectin, Glut4, insulin receptor; test: Immunoblot analysis of tissue protein extracts; assay type: in vivo, mouse
Excerpt: Wild-type (C57BL/6), Il6^−/− (C57BL/6, N11), and Ifng^−/− (C57BL/6, N10) mice were purchased from the Jackson Laboratories (Bar Harbor, Me.). Congenic Tnf^−/− (C56BL/6, N10) and mast cell-deficient Kit^W-sh/W-sh (C57BL/6, N>10) mice were generated by back-crossing to the C57BL/6 background as described (Sun, et al. Nat. Med. 13:719-724 (2007); Wolters, et al., Clin Exp Allergy 35:82-88 (2005)). The standing committee of Harvard Medical School approved all animal research protocols, and all mice were housed in a pathogen-free facility. To induce obesity, we fed 6-week-old mice (females and males) a Western diet (Research Diet, New Brunswick, N.J.) for 12-20 weeks. Mouse body weight was monitored weekly. By the end of each course of Western diet consumption, we performed glucose tolerance and energy expenditure assays as reported previously (Yang, et al., Nat. Cell Biol. 9:970-977 (2007)). Mouse blood samples were collected for serum adipokine measurement. Subcutaneous, visceral, and brown fat and skeletal muscle were harvested individually for protein extraction and paraffin section preparation. Tissue protein extracts were used for ELISA, immunoblot analysis, and cysteinyl cathepsin active site labeling. For immunoblot analysis, 30 μg of proteins were separated on an 8% SDS-PAGE to detect 220 kDa fibronectin (mouse monoclonal, 1:100, NeoMarkers, Fremont, Calif.) and 200 kDa insulin receptor (mouse monoclonal, 1:100, Calbiochem, San Diego, Calif.) or a 12% SDS-PAGE to detect Glut4 (mouse monoclonal, 1:200, R&D Systems, Minneapolis, Minn.), UCP1 (rabbit polyclonal, 1:3000, Abcam, Cambridge, Mass.), actin (mouse monoclonal, 1:500, Abcam), and glyceraldehyde-3-phosphate dehydrogenase (GAPDH, rabbit polyclonal, 1:1000, Santa Cruz Biotechnolog, Santa Cruz, Calif.). For cathepsin active site labeling, 30 μg of proteins were incubated with 1 μl of 600 mM dithiothreitol and 1 μl of [^125I]-JPM in a pH5.5 buffer as previously described. After incubating the reaction mixture at 37° C. for 1 hour, labeled proteins were separated on a 12% SDS-PAGE. Gel was stained with Coomassie blue, destained, dried, and exposed to an x-ray film. The liver and GI tract were harvested for histologic analysis.

[7] = tested on: liver, gastrointestinal tract, pancreas
Excerpt: Wild-type (C57BL/6), Il6^−/− (C57BL/6, N11), and Ifng^−/− (C57BL/6, N10) mice were purchased from the Jackson Laboratories (Bar Harbor, Me.). Congenic Tnf^−/− (C56BL/6, N10) and mast cell-deficient Kit^W-sh/W-sh (C57BL/6, N>10) mice were generated by back-crossing to the C57BL/6 background as described (Sun, et al. Nat. Med. 13:719-724 (2007); Wolters, et al., Clin Exp Allergy 35:82-88 (2005)). The standing committee of Harvard Medical School approved all animal research protocols, and all mice were housed in a pathogen-free facility. To induce obesity, we fed 6-week-old mice (females and males) a Western diet (Research Diet, New Brunswick, N.J.) for 12-20 weeks. Mouse body weight was monitored weekly. […]
Human and mouse WAT and muscle tissues were fixed with 10% formalin overnight and embedded in paraffin, from which 5 μm sections were prepared. […] Researchers blinded to the origin of tissue counted human tryptase-positive and CD117-positive mast cells, and data are presented as cell numbers per mm^2. CD31-positive areas in WAT and muscle were determined using Image-Pro Plus software as described, and data were presented as percentage of CD31-positive areas (Wang, et al., J. Biol. Chem. 281:6020-6029 (2006); Wild, Microvasc Res. 59:368-376 (2000)). […]

[8] = tested on: obese and diabetic WT mice; test: Treatment of established diet-induced obesity and diabetes (four treatment groups); assay type: in vivo, mouse
Excerpt: To assess the direct participation of mast cells in obesity, we studied mast cell-deficient Kit^W-sh/W-sh mice in diet-induced obesity. While Kit^W-sh/W-sh mice lack mature mast cells due to an inversion mutation of the c-Kit promoter region (Duttlinger, et al., Proc. Nat'l Acad. Sci. USA 92:3754-3758 (1995)), numbers and activities of other leukocytes in blood are normal, permitting probing of mast cell functions in vivo. […] To extend our observations, we fed WT mice a Western diet for 12 weeks to produce obesity and diabetes, and grouped these obese and diabetic mice into four treatment groups: I, continued feeding with a Western diet; II, switched to a chow diet; III, continued feeding with a Western diet together with a daily i.p. injection of DSCG; IV, switched to a chow diet and treated with DSCG.

[9] = tested on: mast cell-deficient Kit^W-sh/W-sh mice; test: DSCG treatment of mast cell-deficient Kit W-sh/W-sh mice on Western diet; assay type: in vivo, mouse
Excerpt: as §1

O=C(O)c1cc(=O)c2c(OCC(O)COc3cccc4oc(C(=O)O)cc(=O)c34)cccc2o1 [DSCG, disodium cromoglycate]
body weight gain ([1]; male WT mice, Western diet 12 weeks, daily i.p. injection, vs untreated WT): attenuated body weight gain
total subcutaneous and visceral fat ([1]; male mice, Western diet, vs untreated WT controls): significantly less total subcutaneous and visceral fat
glucose tolerance [2]: significantly improved glucose tolerance
O2 consumption and CO2 production [3]: significantly more O2 consumption and CO2 production
resting metabolic rate [3]: increased resting metabolic rate
serum leptin levels ([4]; male and female mice, Western diet, vs WT controls): significantly lower levels
CatS levels in serum (ELISA) ([4]; serum): reduced significantly
CatL level ([4]; serum and/or WAT, Western diet): did not change significantly
IFN-γ level ([4]; serum and/or WAT, Western diet): lower levels
IL6 level ([4]; serum and/or WAT, Western diet): lower levels
MCP-1 level ([4]; serum and/or WAT, Western diet): lower levels
TNF-α level ([4]; serum and/or WAT, Western diet): lower levels
adiponectin level ([4]; serum and/or WAT, Western diet): did not change significantly
cathepsin S (CatS) level ([4]; serum and/or WAT, Western diet): lower levels
matrix metalloprotease-9 (MMP-9) level ([4]; serum and/or WAT, Western diet): lower levels
mast cell numbers in WAT [5]: mast cell numbers similar to WAT from untreated mice
Glut4 in WAT and muscle ([6]; DSCG-treated mice): more
fibronectin in WAT and muscle ([6]; DSCG-treated mice): more
insulin receptor (IR) in WAT and muscle ([6]; DSCG-treated mice): more
brown fat UCP1 expression ([6]; brown fat, vs WT control mice): obviously higher brown fat UCP1 expression
mast cells or lipid-loaded adipocytes in livers ([7]; Western diet-fed WT mice treated with DSCG): did not detect mast cells or lipid-loaded adipocytes
food/water intake and toxic effect ([7]; mouse, in vivo): neither reduced food/water intake nor any toxic effect of DSCG
body weight decrease ([8]; group III: obese mice, continued Western diet plus daily i.p. DSCG, eight weeks): 12%
glucose tolerance ([8]; group IV: chow diet plus DSCG, compared among four groups): highest glucose tolerance among the four groups
body weight at which mice stabilized ([8]; group IV: chow diet plus DSCG, eight weeks): 40˜41 grams
body weight decrease ([8]; group IV: obese mice switched to chow diet and treated with DSCG, eight weeks): 19%
glucose tolerance in Kit^W-sh/W-sh mice [9]: did not further change
body weight (gain) of Kit^W-sh/W-sh mice ([9]; Western diet): did not further affect the body weight; also recorded: did not further change
